Experimental data: a melting point compilation (Tetko et al.; mined from patent text by program, amines drawn as free bases though some values may be those of a salt)

SMILES	melting point [°C]
COc1ccc(Sc2ccccc2C(C)C)cc1	63 to 65
O=C(NNC(=O)C(Cl)(Cl)Cl)c1cccc(Cl)c1	143 to 144
CC(c1ccccc1)n1cncc1C#N (single isomer, unassigned; (+))	97 to 99
FC(F)(F)c1ccc2c(c1)C(Cl)Cc1c(Cl)cccc1S2 (centres undefined)	88 to 90
COCCOc1cc(/C=C/C(=O)NS(=O)(=O)CCC(C)C)n(Cc2ccc(Cl)cc2Cl)n1	110 to 114
Cc1c(-c2ccncc2)[nH]c2c1C(=O)CCC2	248 to 249
COc1cc2[nH]ccc2cc1OCCCN1CCC(c2noc3cc(F)ccc23)CC1	186 to 188
O=C(O)c1cc(CCl)ccc1O	144 to 147
CCOC(=O)c1ccc2nc[nH]c2c1	93 to 94
CC1(CO)Cc2ccccc2C1(C)C (centres undefined)	48 to 50
COc1cccc([C@H]2O[C@H](CC(=O)N[C@@H](C)C(=O)O)C(=O)N(CC(C)(C)CO)c3ccc(Cl)cc32)c1OC	133 to 135
COCCOc1cc2ncnc(NC3=CC(=O)C(Oc4ccccc4)=CC3=O)c2cc1OC	177 to 180
COc1ccc2c(c1Cl)Sc1ccccc1N2C	136
O=S(=O)(C(=CNc1cccc(NC=C(S(=O)(=O)c2ccccc2)S(=O)(=O)c2ccccc2)n1)S(=O)(=O)c1ccccc1)c1ccccc1	299 to 300
O=C(Cc1ccncc1)N1CCC(=C2c3ccc(Cl)cc3CCc3c(On4nnc5ccccc54)ccnc32)CC1	98.6 to 102
COC(=O)c1ccccc1C(=O)OCC1CN(C(=O)Oc2ccccc2)CCC1c1ccc(F)cc1 (centres undefined)	139 to 141
CNC1=NN(C(=O)c2cccc(C(F)(F)F)c2)C(C)(C)S1	111 to 115
N#CC1(Nc2ccc(Cl)cc2)CCN(C(=O)c2cc(C(F)(F)F)cc(C(F)(F)F)c2)CC1	176 to 180
CCCCCCCCCCCCCCCCNc1ccc(C(=O)OCC(COC(C)=O)OC(C)=O)cc1 (centres undefined)	68
COc1ccc(CN/C=C2\C(=O)NC(=O)c3cccc(Br)c32)cc1O	204 to 206
Cc1cc(C)c(C2C(=O)N(C)C3(CCN(N(C)C)CC3)C2=O)c(C)c1 (centres undefined)	> 195
CCOC(=O)C(Cc1ccc(OCC=C(C)c2ccc(-c3ccc(C(C)=CCOc4ccc(CC(OCC)C(=O)OCC)cc4)cc3)cc2)cc1)OCC (centres undefined)	100 to 106
COC(=O)Nc1c(Cl)ccc(C)c1F	109 to 112
CNC(=O)COc1cc(C)ccc1O	163 to 165
COC1=CC(=O)CC(NC(=O)Nc2ccccc2)C1 (centres undefined)	183 to 185
CCOc1nn(C(=O)NS(=O)(=O)Cl)c(=O)n1C	106

The remaining lines, values ahead:

melting point [°C]	SMILES
290 to 291	CC1(C)OC(=O)Nc2ccc(-c3cncc(C#N)c3)cc21
141 to 143	CC(C)C(NS(=O)(=O)c1ccc(-c2cccc(CNC(=O)c3nc4ccccc4c(=O)[nH]3)c2)cc1)C(=O)O (centres undefined)
245 to 247	Cc1cc(=O)[nH]nc1-c1ccc(-c2ccc(F)cc2)cc1
120 to 122	OCCCC(c1ccccc1)C(O)(c1ccccc1)c1ccccc1 (centres undefined)
92 to 94	CC(C)(S)CN1CCN(c2ccc(C#N)cc2)CC1
244 to 246	Oc1ccc2c(c1O)C(Cc1ccnc3ccccc13)c1ccccc1-2 (centres undefined)
82 to 85	CNC(=O)COC(=O)N1CCN(CCCc2cccc(-c3cccc(Cl)c3)c2)CC1
210 to 212	O=C(O)c1cc(O)cc2ccccc12
63 to 65	COC(=O)C(=O)c1ccc(OCCSc2ccc3ccccc3c2)cc1
129 to 130	COc1ccc(CCC(=O)c2c(OC)cc(OC)c(CCC(C)C)c2OCC(=O)O)cc1O
234 to 235	N#Cc1ccc2oc(CCc3ccc(C(=O)O)cc3)cc2c1
219 to 220	O=C(O)C(=O)N1CCc2cc(S(=O)(=O)N3CCN(c4cccc(Cl)c4)CC3)ccc21
105 to 108	CCN(CC)CCOc1ccc(NC(=O)C#Cc2ccc(-c3ccccc3)cc2)cc1Cl
